Reference: paper PMC4788259 (PLoS Neglected Tropical Diseases, 2016)
pIC50: −log10 of the molar value. Values joined by “and” are separate entries in the source; they are usually repeats but may differ in a detail not shown here. Equal entries are not always repeated. Where two headings read alike, the source gives them in different places.

Key:
[1] = tested on: E. multilocularis metacestodes; assay: Peroral treatment of secondary infected mice; assay type: in vivo, BALB/c mice; conditions: p.o. gavage 5 days per week, 4 weeks, MMV665807 100 mg/kg, ABZ 200 mg/kg
Protocol: (§1) Animals were kept at a temperature-controlled 12/12 hours light cycle with food and water ad libitum and according to the Swiss Animal protection law. For the in vivo treatment of MMV665807, BALB/c mice (from Charles River, Sulzfeld, Germany), at the age of 8 weeks with an average body weight of 20 g, were i.p. infected with 200 μL metacestodes vesicle suspension. This material was prepared from in vitro-cultured metacestodes (strain H95), which were disintegrated by pressing the parasites through a 1 mL pipette tip. Parasite tissue was centrifuged at 500 x g for 5 min at room temperature before being mixed 1:1 in PBS.
Peroral (p.o.) drug treatments by gavage were initiated 6 weeks post-infection and performed as follows: group 1 received no treatment at all; group 2 received 100 μL corn oil containing 7.8 μL DMSO; group 3 mice were treated with 100 μL corn oil containing albendazole (ABZ) in 7.8 μL DMSO, in order to obtain a dosage of 200 mg/kg body weight (positive control); group 4 was treated with 100 μL corn oil containing MMV665807 in 7.8 μL DMSO, resulting in 100 mg/kg body weight. All mice were treated for a total time period of 4 weeks, with consecutive treatment during 5 days per week, and interruption of treatment for 2 days each week. At the end of the treatment, all mice were sedated by isoflurane and subsequently euthanized by CO2. All parasite tissue was resected, placed into a petri dish, and the parasite mass was weighed. Statistical analysis of the in vivo experiments was performed in R version 3.0.1. The data distribution was checked by Shapiro-Wilk test and eventual differences between treatment groups identified by the non-parametric Kruskal-Wallis test. P values were calculated by the non-parametric Wilcoxon […] test with Bonferroni-adjustment. Boxplot visualizations of the data were prepared in Microsoft Excel 2010.

[2] = tested on: E. multilocularis metacestodes; assay: Intraperitoneal treatment of secondary infected mice; assay type: in vivo, BALB/c mice; conditions: 4 weeks, MMV665807 100 mg/kg i.p. three times per week, ABZ 200 mg/kg p.o. 5 days per week
Protocol: as §1
I.p. drug treatments were initiated 2 weeks post-infection. 32 infected mice were randomly separated into 4 groups with 2 times 4 animals per cage. All animals were exposed to 4 weeks of treatment, with five consecutive days of drug application followed by a 2 day recovery period without treatment. Treatment groups were defined as follows: group 1 (control) received 50 μL of corn oil by gavage on 5 days per week, and an i.p. injection of DMSO in corn oil (4 μL DMSO and 46 μL corn oil) on three days per week; group 2 also received corn oil by gavage 5 days per week, and an i.p. injection of MMV665807 (100 mg/kg in 4 μL DMSO plus 46 μL corn oil) three times per week; group 3 was treated with the standard albendazole treatment (albendazole in corn oil, 200 mg/kg/ day for 5 days each week) and also received an i.p. injection of 4 μl DMSO suspended in 46 μl corn oil three times per week; group 4 received a combined treatment consisting of albendazole in corn oil by gavage (200 mg/kg/day 5 days per week) and an i.p. injection of MMV665807 (100 mg/kg three times per week). After 4 weeks of treatment, mice were euthanized and the parasite mass resected and measured as described above. Statistical analyses were performed as described above.

[3] = tested on: E. multilocularis metacestodes; assay: PGI assay: phosphoglucose isomerase release from damaged metacestodes; assay type: cell-based, Echinococcus multilocularis; conditions: 5 days; for PGI (% of DB1127 at 10 uM): single wells, relative to DB1127 (10 μM); for activity in PGI assay at 1 μM: triplicates
Outline: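 E. multilocularis metacestode vesicles (strain H95, grown in BALB/c mice, 2–4 mm diameter) were exposed in vitro to compounds for 5 days. Damage was read as phosphoglucose isomerase released into the medium. Initial screening used 10 μM in single wells, with 0.1% DMSO as negative control. EC50 values were derived from this read-out.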

adult worms = tested on: adult worms; parameters: method as in PMID 24416463; conditions: in vitro; read-out: IC50 against adult worms; cited from earlier work
[4] = tested on: newly transformed schistosomula; parameters: method as in PMID 24416463; conditions: in vitro; read-out: IC50 against newly transformed schistosomula; cited from earlier work
S. mansoni = tested on: S. mansoni; parameters: method as in PMID 24416463; conditions: cited from earlier work

| Compound | PGI (% of DB1127 at 10 uM) [3] | further results |
| --- | --- | --- |
| CCCSc1ccc2nc(NC(=O)OC)[nH]c2c1 [ABZ, albendazole, reference compound] |  | parasite weight compared to control ([1]; start 6 weeks post-infection): significant reduction; adverse effects during treatment [1]: No adverse effects; parasite weight compared to placebo group ([2]; start 2 weeks post-infection): significantly lower; adverse effects during treatment [2]: No adverse effects |
| CCOc1ccccc1NC(=O)CN1CCN(C(=O)c2ccco2)CC1 [MMV007791] | -28.95% |  |
| COc1ccc(OC)c(C2C3=C(CC(C)(C)CC3=O)N(c3ccc(Cl)c(Cl)c3)C3=C2C(=O)CC(C)(C)C3)c1 [MMV007208] | -12.95% |  |
| COc1ccc2c(c1OC)C(=O)N1c3ccccc3N=C(c3ccc(C)cc3)CC21 (stereo not shown) [MMV000917] | -0.60% |  |
| Brc1ccc(Nc2nc3ccccc3nc2Nc2ccc(Br)cc2)cc1 [MMV007224] |  | activity in PGI assay at 1 μM [3]: lost its activity; pIC50 (adult worms): 6.10; pIC50 [4]: < 4.48 |
| O=C(Nc1ccc(Cl)c(Cl)c1)Nc1ccc(Cl)c(Cl)c1 [MMV665852] | 14.8% and 14.75% | activity in PGI assay at 1 μM [3]: no activity at all; pIC50 (adult worms): 6.10; worm burden reduction (S. mansoni; 80 mg/kg): 46%; worm burden reduction (S. mansoni; 400 mg/kg): 52.5%; worm burden reduction (S. mansoni; 4x100 mg/kg): 31.2%; pIC50 [4]: 5.33 |
| O=C(CCc1ccccc1)c1ccccc1OCC(O)CN1CCCCC1 (stereo not shown) [MMV009015] | 4.79% |  |
| COCCN(C(=O)Cc1cccs1)C(C(=O)NCc1ccc(OC)cc1)c1ccc(C(C)C)cc1 (stereo not shown) [MMV666105] | -124.48% |  |
| CNCCCNc1ccnc2cc(Cl)ccc12 [MMV020500] | -31.62% |  |
| COc1ccc(C(=O)NC(c2ccc(Cl)cc2Cl)c2cc(Cl)c3cccnc3c2O)cc1 (stereo not shown) [MMV666054] | 1.08% |  |
| O=C(NC1CCN(Cc2ccccc2)CC1)c1cc(C(=O)NC2CCN(Cc3ccccc3)CC2)cc(C(=O)NC2CCN(Cc3ccccc3)CC2)c1 [MMV019881] | 9.54% |  |
| CCc1ccc(CNCC(O)c2ccccc2)cc1.Cl (stereo not shown) [MMV665812] | -2.45% |  |
| COc1ccc(C2NCCc3c2[nH]c2ccccc32)cc1CN1CCN(c2ccc(F)cc2)CC1.Cl (stereo not shown) [MMV019690] | 51.28% |  |
| Cc1ccc(C2CC(C(F)(F)F)n3nc(C(=O)N4CCN(C(c5ccccc5)c5ccccc5)CC4)cc3N2)cc1 (stereo not shown) [MMV000699] | -1.50% |  |
| O=C(Nc1ccc(F)c(Cl)c1)Nc1ccc(Cl)c(Cl)c1 [MMV665953] | 213.83% |  |
| COc1ccc2c(c1)C1(Nc3ccccc3-c3nc4ccccc4n31)C(=O)N2 (stereo not shown) [MMV396749] | 0.0365% |  |
| CC(C)OCc1cc(CN2CCN(c3cccc(Cl)c3)CC2)c(O)c2ncccc12 [MMV000788] | -14.40% |  |
| Cc1ccc(Nc2nc(-c3ccccn3)cs2)cc1 [MMV007907] | -25.32% |  |
| Cn1c(=O)c2cc(C(=O)NCCCN3CCCCCC3)sc2c2ccccc21 [MMV019313] | -53.66% |  |
| CN(N=O)C1=C(NC2CCCCC2)C(=O)c2ccccc2C1=O [MMV667492] | -5.36% |  |
| CN1c2ccccc2N(C)C1c1ccc2c(c1)OCO2 [MMV666009] | -36.57% |  |
| COc1ccc2c(c1)OC(O)(C(F)(F)C(F)(F)F)CC2=O (stereo not shown) [MMV007839] | 50.23% |  |
| FC(F)(F)c1cccc(Nc2nc(-c3ccccc3)nc3ncccc23)c1 [MMV665798] | 30.38% |  |
| CCN(CC)CCNc1ncnc2c1[nH]c1ccc(Br)cc12 [MMV006545] | -33.20% |  |

| Compound | PGI (% of DB1127 at 10 uM) [3] | further results |
| --- | --- | --- |
| O=C(NC1CCN(Cc2ccccc2)CC1)c1cc(-c2ccncc2)nc2ccc(Cl)cc12 [MMV020275] | -18.74% |  |
| CCCCNc1nc(NC(C)(C)C)nc(NC(C)(C)C)n1 [MMV665864] | -36.23% |  |
| COc1cc(-c2nc(-c3ccc(Sc4ccccc4)cc3)c(-c3ccccc3)[nH]2)cc(OC)c1O [MMV007273] | -7.16% |  |
| C[n+]1c2ccccc2nc2ccc(NCCO)cc21 [MMV396693] | -18.69% |  |
| CC(O)(c1ccc(Cl)cc1)C(CN1CCCCC1)c1ccccc1.Cl (stereo not shown) [MMV000620] | -136.22% |  |
| Cc1ccc(F)cc1NC(=O)c1cc(Cl)ccc1Nc1ccccc1 [MMV007275] | 1.44% |  |
| COc1ccccc1CNC(=O)CCn1c(=O)[nH]c2ccsc2c1=O [MMV019066] | -44.92% |  |
| CCOC(=O)C1=C(C)N=c2sc(=Cc3cc(Cl)ccc3O)c(=O)n2C1c1ccc(OC)cc1 (stereo not shown) [MMV665971] | -11.30% |  |
| COc1ccccc1C(=O)ON=C(N)Cc1cccc2ccccc12 [MMV666686] | 1.82% |  |
| Clc1ccc2c(N3CCCC3)ccnc2c1 [MMV007363] | -15.91% |  |
| CCCc1c(C)nc2ccc(Br)cc2c1O [MMV666095] | -30.45% |  |
| COc1ccc(-c2cc(=O)oc3c4c(ccc23)OCN(Cc2ccc(F)cc2)C4)cc1 [MMV000604] | 3.81% |  |
| CC(C)CCNCC(O)Cn1c2ccccc2c2ccccc21.Cl (stereo not shown) [MMV006787] | 62.04% |  |
| COc1ccc(N2CCN(C(CNC(=O)CC(C)(C)C)c3ccc4c(c3)OCO4)CC2)cc1 (stereo not shown) [MMV665908] | -6.01% |  |
| CN1CCN(c2nc(Nc3ccc(O)cc3)nc3ccccc23)CC1.Cl [MMV000986] | -4.90% |  |
| CCOc1ccc(-c2nc(NC(=O)c3cccc(S(C)(=O)=O)c3)sc2C)cc1 [MMV665913] | -25.30% |  |
| CC(C)(C)C(=O)Nc1ccc(C(=O)Nc2cccc(-c3nc4ccccc4[nH]3)c2)cc1 [MMV665879] | 17.15% |  |
| CN1CCN(c2c3c(c(C#N)c4nc5ccccc5n24)CCC3)CC1 [MMV008127] | -35.30% |  |
| COc1ccccc1N1CCN(C(CNS(=O)(=O)c2ccc(Cl)cc2)c2cccnc2)CC1 (stereo not shown) [MMV665914] | 1.92% |  |
| O=C(O)C(=O)O.Oc1ccc(Br)cc1CN1CCN(Cc2cccc(F)c2)CC1 [MMV000356] | -18.68% |  |
| CCN(CC)c1ccc(NC(=O)c2cccs2)cc1 [MMV009060] | -36.82% |  |
| CCN1CCN(Cc2ccc(NC(=O)c3cc4ccc5cccnc5c4[nH]3)cc2)CC1 [MMV020548] | -26.47% |  |
| COc1ccc2sc(N(Cc3cccnc3)C(=O)c3ccc(C#N)cc3)nc2c1 [MMV001239] | -2.38% |  |
